MIC data for one compound are collected here from patent publication US20250000883A1, “TREATING NEUROINFLAMMATORY CONDITIONS” (AN2 Therapeutics, Inc., priority 2021, published 2025).

Converted amounts (≈) assume the structure as drawn.

The test system of the assay is Porphyromonas gingivalis. The assay is described as follows: Antibacterial MIC testing (agar dilution, anaerobic). Format: cell-based. Particulars: supplemented Brucella agar, 44 h, 36° C. The protocol:
Epetraborole was placed is a stock solution and stored at −70° C. Serial two-fold dilutions were prepared on the day of testing.
Porphyromonas gingivalis organisms were recovered from clinical samples, identified by standard methods or by partial sequencing of the 16S gene and stored in 20% skim milk at −70° C. All isolates were taken from the freezer and subcultured at least twice on supplemented Brucella agar to ensure good growth. Inocula were prepared by direct suspensions of cells from 48 h cultures into saline or Brucella broth.
For all tested organisms, supplemented Brucella agar deeps were obtained from Anaerobe Systems (Morgan Hill, CA). Defibrinated sheep blood (Hardy Diagnostics, Santa Maria, CA) was frozen and thawed to produce laked blood. On the day of testing, laked blood and the antimicrobial agents were added to the tubes of molten agar before pouring the agar dilution plates. The strains were applied to the plates using a Steers multipronged inoculator for a final concentration of approximately 10^5 cfu/spot. After 44 h incubation at 36° C. in the anaerobic chamber incubator, the plates were examined for growth, and the MICs interpreted.

On to `NC[C@H]1OB(O)c2c(OCCCO)cccc21` [Epetraborole], for which the minimal inhibitory concentration (MIC) (Po. gingivalis clinical isolate RMA# 15676 (Abd-perit.fld)) was 2 µg/mL (≈ 8.44 µM), the MIC (Po. gingivalis clinical isolate RMA# 15913 (Abd-perit.fld)) amounted to 2 µg/mL (≈ 8.44 µM), the minimum inhibitory concentration (MIC) (Po. gingivalis clinical isolate RMA# 16269 (Abd-perit.fld)) came to 0.125 µg/mL (≈ 0.527 µM) and the minimal inhibitory concentration (MIC) (Po. gingivalis clinical isolate RMA# 16389 (Abd-perit.fld)) came out at 0.5 µg/mL (≈ 2.11 µM).

Broadly, the MIC is the lowest concentration that inhibits growth of the organism. A high value points to weaker potency.
